“Also recorded” adds a separate entry of the source.
Experiments:
[1] = tested on: p38-MAPK; test: Western immunoblot of phosphorylated p38-MAPK in human islets; type: cell-based
Text: (§1) Equal amounts of whole islet cell protein extracts were separated on polyacrylamide-sodium dodecyl sulfate gels and transferred to polyvinylidene difluoride transfer membranes (GE Healthcare, Buckinghamshire, UK). The blots were probed with primary antibodies, and bands were detected using horseradish […] secondary antibodies (GE Healthcare UK Limited, Chalfont, UK) and the enhanced chemiluminescence detection system (GE Healthcare).
(§2) Rabbit PAb anti-p38-MAPK (pTpY180/182) and anti-c-Jun N-terminal kinase (JNK)-1 and -2 (pTpY183/185) were purchased from Alpha BioSource/Invitrogen and were used at a 1:500 dilution. Mouse monoclonal anti-p38-MAPK (A-12) and rabbit polyclonal anti-actin (1-19) were purchased from Santa Cruz Biotechnology (Santa Cruz, Calif.). p38-MAPK was used at a 1:500 dilution, and actin was used at a 1:2500 dilution. Rabbit anti-12-LO (see Ref. 8) was used at a 1:1000 dilution.
(§3) To determine whether treating islets with 12(S)-HETE would affect the activity of two well-known stress-mediated pathways linked to β-cell damage, p38-MAPK and JNK in human islets, were investigated. […] The results are presented as the means±SD. *, P<0.05 compared with the corresponding control; #, P<0.05 compared with the cytokine treatment group.

[2] = tested on: human islets; test: Glucose-stimulated insulin secretion in human islets; type: cell-based; conditions: for effect on insulin secretion: human islets, 1 and 100 nM, 4 hours incubation, then 1 hour in 11 mM glucose
Procedure: In other studies, human islets were cultured in CMRL medium-1066 (Invitrogen) with 5% fetal bovine serum overnight and then transitioned to serum free Kreb-Ringer buffer at 37° C., and islets were incubated with and without HETEs in 3 and 18 mM glucose for 4 hours, as shown in FIG. 12. The supernatant was collected after each treatment, and insulin concentration in the supernatant was measured by an enzyme immunoassay method (Mercodia, Uppsala, Sweden) with a mouse or human insulin standard. The intraassay variation was less than 4%, and the interassay variation was less than 10%.
LOs catalyze the oxidation of linoleic acid and arachidonic acid, generating products of varying stability. […] Referring to FIGS. 13A and 13B, 12(S)-HETE, 15(S)-HETE, 12-HPETE, and 12-RHETE were tested at 1 and 100 nM doses to examine their effects on insulin secretion. Human islets were incubated with the various HETEs for 4 hours and then assessed for insulin secretion during a 1-hour period incubated in 11 mM glucose. Also confirmed were the effects of 12(S)-HETE on basal (3 mM) and stimulated (18 mM) glucose concentration.

[3] = tested on: JNK-1 and -2; test: Western immunoblot of phosphorylated JNK in human islets; type: cell-based; conditions: human islets treated with 12(S)-HETE
Text: as §1, §2, §3

[4] = tested on: human islets; test: Cell death by propidium iodide (PI) fluorescence; type: cell-based; conditions: for cell death, PI staining intensity: overnight incubation
Procedure: Islets were treated with 20 μg/ml of propidium iodide (PI) and incubated for 10 minutes. Islets were imaged once under brightfield illumination to determine the islet borders and imaged again to measure PI fluorescence using 535-nm excitation and 617-nm emission as previously reported (11). Islets were circled, and the mean PI fluorescence intensity was determined for each islet individually. Three separate trials from three donors were conducted.
Islet cell death was evaluated by PI staining in islets after overnight incubation with 1, 10, or 100 nM 12(S)-HETE. […] This finding is consistent with dose-response measures of cell death previously observed with mouse islets (8).

[5] = tested on: human islets; conditions: 50 μm LSF overnight pretreatment, then 1 nm 12(S)-HETE 4 hours
Procedure: Viability was assessed by detecting 3-(4,5-dimethylthiazol-2-yl)-2,5-diphenyltetrazolium bromide (MTT; Sigma-Aldrich) metabolism as previously described (17).
Human islets from four different human donors were pretreated with 50 μm LSF overnight or untreated as indicated. Islets were then treated with 1 nm 12(S)-HETE for 4 hours and incubated in 11 mm glucose for 1 hour to measure islet metabolic activity by MTT assay (A) or insulin secretion (B).

[6] = human islets treated with 12(S)-HETE

N#CC(=Cc1ccc(O)c(O)c1)C(=O)OCC=Cc1ccccc1 [CDC, cinnamyl-3,4-dihydroxy-α-cyanocinnamate]
cytokine-induced pp38-MAPK activity ([1]; human islets pretreated with CDC, cytokines TNF-α, IFN-γ, IL-1β): significantly reduced; also recorded: blocked

CCCCC/C=C\C[C@@H](O)/C=C/C=C\C/C=C\CCCC(=O)O [12(S)-HETE, 12-hydroxyeicosatetraenoic acid]
effect on insulin secretion [2]: consistently reduced; also recorded: most substantial reduction in insulin secretion | phosphorylated JNK (ppJNK1 and -2) activity [3]: not affected | increase in cell death ([4]; 100 nM): 50% | cell death, PI staining intensity ([4]; 100 nM): significant increase in cell death | cell death, PI staining intensity ([4]; 1 or 10 nM): no significant increase in cell death | phosphorylated p38 (pp38) protein activity [1, 6]: increased phosphorylated p38 | total p38-MAPK (p38) [1, 6]: without any change

CCCCC/C=C\CC(/C=C/C=C\C/C=C\CCCC(=O)O)OO (stereo not drawn) [12-HPETE, 12-hydroperoxyeicosatetraenoic acid]
effect on insulin secretion [2]: consistently reduced | effect on insulin secretion ([2]; listed as 12(S)HPETE): most substantial reduction in insulin secretion

C[C@@H](O)CCCCn1c(=O)c2c(ncn2C)n(C)c1=O [LSF, Lisofylline]
reversal of 12(S)-HETE-induced reduction in insulin secretion ([2]; 50 μm LSF overnight pretreatment, then 1 nm 12(S)-HETE 4 hours, 11 mm glucose 1 hour): reversed | reversal of 12(S)-HETE effects on metabolic activity (MTT assay) [5]: partially reversed

Source: patent US20130131140A1, “TREATMENT OF DIABETES AND DISORDERS ASSOCIATED WITH VISCERAL OBESITY WITH INHIBITORS OF HUMAN ARACHIDONATE 12 LIPOXYGENASE AND ARACHIDONATE 15-LIPOXYGENASE” (priority 2010, published 2013)
